Here are results for 20 molecules from ChEMBL document CHEMBL5291721, “A preclinical secondary pharmacology resource illuminates target-adverse drug reaction associations of marketed drugs” (Nat Commun, 2023).

SMILES strings stand for the structures. A value given as a limit tells only on which side of the number the result lay.

For experiment [1], the target named is T1, Type-1 angiotensin II receptor (Homo sapiens, UniProt P30556).
T1 sequence (P30556 whole entry): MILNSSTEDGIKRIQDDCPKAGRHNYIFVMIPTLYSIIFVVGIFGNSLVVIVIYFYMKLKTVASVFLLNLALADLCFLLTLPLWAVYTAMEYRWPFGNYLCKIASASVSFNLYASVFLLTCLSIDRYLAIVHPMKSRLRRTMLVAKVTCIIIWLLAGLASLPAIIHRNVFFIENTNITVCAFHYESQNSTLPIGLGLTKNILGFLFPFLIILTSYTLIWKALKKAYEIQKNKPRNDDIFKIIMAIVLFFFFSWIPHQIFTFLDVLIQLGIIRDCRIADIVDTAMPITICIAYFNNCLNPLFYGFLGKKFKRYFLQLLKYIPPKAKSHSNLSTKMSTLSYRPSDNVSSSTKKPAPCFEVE

Experiment [2] concerns the target T2, Alpha-2A adrenergic receptor (Homo sapiens, UniProt P08913).
T2 sequence (P08913 whole entry): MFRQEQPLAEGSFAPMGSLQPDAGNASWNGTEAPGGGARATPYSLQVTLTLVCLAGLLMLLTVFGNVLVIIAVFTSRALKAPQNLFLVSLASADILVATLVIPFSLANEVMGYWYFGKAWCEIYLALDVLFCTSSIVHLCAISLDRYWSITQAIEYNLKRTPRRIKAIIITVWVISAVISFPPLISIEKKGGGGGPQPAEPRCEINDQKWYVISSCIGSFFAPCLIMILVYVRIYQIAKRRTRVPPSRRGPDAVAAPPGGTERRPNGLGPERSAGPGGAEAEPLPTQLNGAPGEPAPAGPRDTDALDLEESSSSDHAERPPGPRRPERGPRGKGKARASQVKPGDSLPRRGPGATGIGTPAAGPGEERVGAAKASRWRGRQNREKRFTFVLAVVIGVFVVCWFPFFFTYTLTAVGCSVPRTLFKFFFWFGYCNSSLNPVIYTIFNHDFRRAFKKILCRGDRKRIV
It is filed as functional, cell-based.

The target of experiment [3] is 5-hydroxytryptamine receptor 2B (Homo sapiens, UniProt P41595). It is filed as functional, cell-based.
For experiment [4], the target named is T3, Muscarinic acetylcholine receptor M2 (Homo sapiens, UniProt P08172).
T3 sequence (P08172 whole entry): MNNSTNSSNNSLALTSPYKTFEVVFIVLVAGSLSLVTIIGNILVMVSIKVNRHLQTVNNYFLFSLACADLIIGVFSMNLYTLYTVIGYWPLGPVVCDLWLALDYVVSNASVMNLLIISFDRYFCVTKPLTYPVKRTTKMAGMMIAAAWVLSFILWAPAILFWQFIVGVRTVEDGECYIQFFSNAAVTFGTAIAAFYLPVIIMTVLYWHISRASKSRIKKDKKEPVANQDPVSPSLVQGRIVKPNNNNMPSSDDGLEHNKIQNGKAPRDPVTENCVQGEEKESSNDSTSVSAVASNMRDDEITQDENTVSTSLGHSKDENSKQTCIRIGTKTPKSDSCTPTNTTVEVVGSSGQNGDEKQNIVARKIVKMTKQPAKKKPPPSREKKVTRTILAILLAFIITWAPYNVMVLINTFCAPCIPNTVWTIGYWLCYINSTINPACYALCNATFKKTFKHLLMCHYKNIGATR
It counts as functional, cell-based.

The target in experiment [5] is Cannabinoid receptor 1 (Homo sapiens, UniProt P21554). It counts as functional, cell-based.
Experiment [6] deals with Beta-2 adrenergic receptor (Homo sapiens, UniProt P07550).
The target in experiment [7] is Sodium-dependent dopamine transporter (Homo sapiens, UniProt Q01959).
Experiment [8] has as its target T4, Adenosine receptor A1 (Homo sapiens, UniProt P30542).
T4 sequence (P30542 whole entry): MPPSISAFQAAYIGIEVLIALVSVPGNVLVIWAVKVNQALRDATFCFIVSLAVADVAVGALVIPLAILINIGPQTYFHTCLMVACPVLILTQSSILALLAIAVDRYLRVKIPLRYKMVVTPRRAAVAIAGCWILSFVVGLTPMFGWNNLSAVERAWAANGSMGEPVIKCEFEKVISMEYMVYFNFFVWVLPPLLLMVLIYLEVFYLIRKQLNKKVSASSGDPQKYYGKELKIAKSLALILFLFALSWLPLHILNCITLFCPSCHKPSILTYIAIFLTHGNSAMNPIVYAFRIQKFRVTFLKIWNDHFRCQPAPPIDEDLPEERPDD
Also: assay procedure not described here.

Chain of Cannabinoid receptor 1 (P21554 whole entry): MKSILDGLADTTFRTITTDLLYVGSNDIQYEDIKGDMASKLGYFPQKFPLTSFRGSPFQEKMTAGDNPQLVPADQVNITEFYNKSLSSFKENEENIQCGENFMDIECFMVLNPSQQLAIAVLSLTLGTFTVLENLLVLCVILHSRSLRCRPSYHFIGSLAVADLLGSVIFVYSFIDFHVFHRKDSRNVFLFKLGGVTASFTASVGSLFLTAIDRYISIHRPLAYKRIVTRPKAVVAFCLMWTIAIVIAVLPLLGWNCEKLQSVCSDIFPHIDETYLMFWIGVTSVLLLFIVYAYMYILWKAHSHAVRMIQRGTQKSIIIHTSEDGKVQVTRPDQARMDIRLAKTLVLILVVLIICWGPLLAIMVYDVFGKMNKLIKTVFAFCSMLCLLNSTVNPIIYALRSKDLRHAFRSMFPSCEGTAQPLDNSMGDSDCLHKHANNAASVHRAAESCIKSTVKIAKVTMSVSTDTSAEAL
Chain of Sodium-dependent dopamine transporter (Q01959 whole entry): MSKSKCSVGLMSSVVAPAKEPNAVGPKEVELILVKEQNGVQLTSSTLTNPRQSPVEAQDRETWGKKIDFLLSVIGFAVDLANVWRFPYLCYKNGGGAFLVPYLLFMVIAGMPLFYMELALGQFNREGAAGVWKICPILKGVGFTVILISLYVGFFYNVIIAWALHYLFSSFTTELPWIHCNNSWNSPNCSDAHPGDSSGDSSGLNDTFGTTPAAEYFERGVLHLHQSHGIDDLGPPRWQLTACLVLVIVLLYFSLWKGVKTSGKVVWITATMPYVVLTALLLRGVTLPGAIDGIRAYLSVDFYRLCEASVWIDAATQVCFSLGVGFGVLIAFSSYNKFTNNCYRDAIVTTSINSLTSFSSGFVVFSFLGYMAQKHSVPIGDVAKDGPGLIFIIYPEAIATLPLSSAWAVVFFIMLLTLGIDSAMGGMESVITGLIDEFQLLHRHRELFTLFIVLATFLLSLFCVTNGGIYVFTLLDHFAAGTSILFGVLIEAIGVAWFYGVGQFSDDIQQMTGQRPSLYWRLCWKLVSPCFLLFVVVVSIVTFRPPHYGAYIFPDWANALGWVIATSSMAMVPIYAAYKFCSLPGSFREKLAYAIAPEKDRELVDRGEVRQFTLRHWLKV
Chain of 5-hydroxytryptamine receptor 2B (P41595 whole entry): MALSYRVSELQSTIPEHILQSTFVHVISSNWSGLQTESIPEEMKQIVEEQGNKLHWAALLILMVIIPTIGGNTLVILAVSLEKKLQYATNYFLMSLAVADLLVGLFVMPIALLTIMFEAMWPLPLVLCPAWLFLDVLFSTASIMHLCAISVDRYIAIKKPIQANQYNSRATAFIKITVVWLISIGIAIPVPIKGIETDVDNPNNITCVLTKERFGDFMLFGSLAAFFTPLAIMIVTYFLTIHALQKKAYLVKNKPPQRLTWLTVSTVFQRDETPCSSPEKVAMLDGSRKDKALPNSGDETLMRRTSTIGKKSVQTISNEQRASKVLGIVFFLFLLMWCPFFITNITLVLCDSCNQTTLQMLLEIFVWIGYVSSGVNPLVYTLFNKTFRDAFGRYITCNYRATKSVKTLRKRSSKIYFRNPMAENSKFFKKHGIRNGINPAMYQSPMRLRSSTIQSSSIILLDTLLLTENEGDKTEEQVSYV
Chain of Beta-2 adrenergic receptor (P07550 whole entry): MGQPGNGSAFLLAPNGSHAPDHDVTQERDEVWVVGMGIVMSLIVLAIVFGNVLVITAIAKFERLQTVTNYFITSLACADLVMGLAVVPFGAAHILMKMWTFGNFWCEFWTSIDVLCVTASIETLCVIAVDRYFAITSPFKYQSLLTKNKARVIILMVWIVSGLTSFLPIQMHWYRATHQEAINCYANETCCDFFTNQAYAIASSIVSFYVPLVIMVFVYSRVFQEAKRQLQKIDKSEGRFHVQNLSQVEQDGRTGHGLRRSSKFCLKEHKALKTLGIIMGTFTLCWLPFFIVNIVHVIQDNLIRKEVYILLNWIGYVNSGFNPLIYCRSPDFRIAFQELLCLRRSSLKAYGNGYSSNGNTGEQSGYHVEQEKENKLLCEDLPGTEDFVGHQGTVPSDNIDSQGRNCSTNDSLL

With `CC(C)C(=O)c1c(C(C)C)nn2ccccc12` [IBUDILAST], the concentration at half-maximal activity (AC50) in experiment [1], in experiment [2], in experiment [3], in experiment [4], in experiment [5] and in experiment [6] was greater than 30 µM throughout. In addition, the AC50 was greater than 30 µM in experiment [7] and 20 µM in experiment [8].
With `CC(=O)O[C@H]1C[C@@H]2CC[C@@H]3[C@H](CC[C@@]4(C)[C@H]3C[C@H]([N+]3(C)CCCCC3)[C@@H]4OC(C)=O)[C@@]2(C)C[C@@H]1N1CCCCC1` [VECURONIUM], the AC50 in experiment [1], in experiment [2], in experiment [3], in experiment [4], in experiment [5] and in experiment [6] was greater than 30 µM each time. Moreover, the AC50 in experiment [7] and in experiment [8] was greater than 30 µM throughout.
Turning to `CC(C)(C)C(=O)Oc1ccc(S(=O)(=O)Nc2ccccc2C(=O)NCC(=O)O)cc1`, the concentration at half-maximal activity (AC50) in experiment [1], in experiment [2], in experiment [3], in experiment [4], in experiment [5] and in experiment [6] was greater than 30 µM in each case. The AC50 in experiment [7] and in experiment [8] was greater than 30 µM each time.
Turning to `C[C@](N)(Cc1ccc(O)c(O)c1)C(=O)O` [METHYLDOPA], the AC50 in experiment [1], in experiment [2], in experiment [3], in experiment [4], in experiment [6] and in experiment [7] was greater than 10 µM in each case. In experiment [8], the concentration at half-maximal activity (AC50) is greater than 30 µM.
In the case of `COc1ccc2c3c1O[C@H]1[C@@H](O)C=C[C@H]4[C@@H](C2)N(C)CC[C@@]341` [CODEINE], the concentration at half-maximal activity (AC50) is greater than 30 µM in experiment [1]; greater than 10 µM in experiment [2]; greater than 10 µM in experiment [3]; greater than 10 µM in experiment [4]; greater than 30 µM in experiment [5]; greater than 10 µM in experiment [6]. The AC50 in experiment [7] and in experiment [8] was greater than 30 µM each time.
For the molecule `CCCc1nc(C(C)(C)O)c(C(=O)OCc2oc(=O)oc2C)n1Cc1ccc(-c2ccccc2-c2nnn[nH]2)cc1` [OLMESARTAN MEDOXOMIL], the AC50 is 0.0009 µM in experiment [1]; greater than 10 µM in experiment [2]; greater than 10 µM in experiment [3]; greater than 10 µM in experiment [4]; greater than 30 µM in experiment [5]; greater than 10 µM in experiment [6]. Further, the values for the concentration at half-maximal activity (AC50) in experiment [7] and in experiment [8] were greater than 30 µM and greater than 50 µM, respectively.
Turning to `CN1CCN(CC/C=C2/c3ccccc3Sc3ccc(S(=O)(=O)N(C)C)cc32)CC1` [THIOTHIXENE], the AC50 in experiment [1] is greater than 30 µM; in experiment [2] it was greater than 10 µM; in experiment [3], 4.9 µM; in experiment [4], greater than 10 µM; in experiment [5], greater than 30 µM; in experiment [6], greater than 10 µM. Further, the half-maximal activity concentration (AC50) in experiment [7] is 6.26 µM; in experiment [8] it was greater than 30 µM.
As to `O=C(NCCN1CCOCC1)c1ccc(Cl)cc1` [MOCLOBEMIDE], the AC50 in experiment [1], in experiment [2], in experiment [3], in experiment [4], in experiment [6] and in experiment [7] was greater than 10 µM throughout. Moreover, the concentration at half-maximal activity (AC50) in experiment [8] is greater than 10 µM.
As for `O=C(O)CCCCCCCC(=O)O` [AZELAIC ACID], the concentration at half-maximal activity (AC50) in experiment [1], in experiment [2], in experiment [3], in experiment [4], in experiment [6] and in experiment [7] was greater than 10 µM each time. In experiment [8], the AC50 is greater than 10 µM.
For the molecule `Cc1ccc(S(=O)(=O)NC(=O)NN2CC3CCCC3C2)cc1` (configuration not stated) [GLICLAZIDE], the half-maximal activity concentration (AC50) in experiment [1], in experiment [2], in experiment [3], in experiment [4], in experiment [6] and in experiment [7] was greater than 10 µM in each case. The molecule further had an AC50 in experiment [8] greater than 10 µM.
`CNC(C)CCC=C(C)C` (configuration not stated) [ISOMETHEPTENE]: the half-maximal activity concentration (AC50) in experiment [1], in experiment [6], in experiment [7] and in experiment [8] was greater than 30 µM each time.
Take `COc1ccc(-c2ccc3cc(C(=O)O)ccc3c2)cc1C12CC3CC(CC(C3)C1)C2`: the AC50 in experiment [1], in experiment [2], in experiment [3], in experiment [4], in experiment [5] and in experiment [6] was greater than 30 µM throughout. Moreover, the concentration at half-maximal activity (AC50) in experiment [7] and in experiment [8] was greater than 30 µM each time.
As for `CCOC(=O)[C@H](CCc1ccccc1)N[C@@H](C)C(=O)N1C(=O)N(C)C[C@H]1C(=O)O`, the AC50 in experiment [1], in experiment [2], in experiment [3], in experiment [4], in experiment [5] and in experiment [6] was greater than 30 µM throughout. Moreover, the AC50 in experiment [7] and in experiment [8] was greater than 30 µM each time.
As to `CCN1CCN(C(=O)N[C@@H](C(=O)N[C@@H]2C(=O)N3C(C(=O)O)=C(CSc4nnnn4C)CS[C@H]23)c2ccc(O)cc2)C(=O)C1=O` [CEFOPERAZONE], the half-maximal activity concentration (AC50) in experiment [1], in experiment [2], in experiment [3], in experiment [4], in experiment [5] and in experiment [7] was greater than 30 µM each time. In addition, in experiment [8], the AC50 was greater than 30 µM.
As to `C#C[C@]1(O)CC[C@H]2[C@@H]3CCc4cc(OC5CCCC5)ccc4[C@H]3CC[C@@]21C` [QUINESTROL], the AC50 in experiment [1], in experiment [2], in experiment [3], in experiment [4], in experiment [6] and in experiment [7] was greater than 10 µM each time. The same molecule registered an AC50 in experiment [8] greater than 10 µM.
Consider `CC[C@@H]1C(=O)OC[C@@H]1Cc1cncn1C` [PILOCARPINE], for which the AC50 was greater than 30 µM in experiment [1]; greater than 10 µM in experiment [2]; greater than 10 µM in experiment [3]; greater than 30 µM in experiment [5]; greater than 10 µM in experiment [6]; greater than 30 µM in experiment [7]. In experiment [8], this molecule showed an AC50 greater than 30 µM.
Consider `N#Cc1ccc([C@H]2CCc3cncn32)c(F)c1` [OSILODROSTAT], for which the concentration at half-maximal activity (AC50) in experiment [1], in experiment [6], in experiment [7] and in experiment [8] was greater than 10 µM each time.
Take `CCN(CC)C(=O)N[C@H]1C[C@@H]2c3cccc4[nH]cc(c34)C[C@H]2N(C)C1` [TERGURIDE]: the half-maximal activity concentration (AC50) in experiment [1] was greater than 30 µM; in experiment [2] it was greater than 30 µM; in experiment [3] it was 0.58 µM; in experiment [4], greater than 30 µM; in experiment [5], greater than 30 µM; in experiment [7], greater than 30 µM. The same molecule came in with a half-maximal activity concentration (AC50) in experiment [8] greater than 30 µM.
Regarding `CCCC(C)C1(CC)C(=O)NC(=O)NC1=O` (configuration not stated) [PENTOBARBITAL], the half-maximal activity concentration (AC50) in experiment [1], in experiment [2], in experiment [3], in experiment [4], in experiment [6] and in experiment [7] was greater than 10 µM throughout. Also, the concentration at half-maximal activity (AC50) in experiment [8] was greater than 10 µM.
Consider `C/C(O)=C(\C#N)C(=O)Nc1ccc(C(F)(F)F)cc1` [TERIFLUNOMIDE], for which the AC50 in experiment [1], in experiment [2], in experiment [3], in experiment [4], in experiment [5] and in experiment [7] was greater than 30 µM in each case. The AC50 in experiment [8] was greater than 30 µM.

What is called AC50 is the concentration at which the activity in the assay is half-maximal.
